Key:
Assay in all cases: KinomeScan kinase profiling
Format in all cases: binding
PKMYT1 = molecular target: T1, PKMYT1 (Homo sapiens, UniProt Q99640)
T1 construct: purchased Ambit Biosciences Corp (KinomeScan); host or cells: E. coli host derived from BL21, infected with T7 phage
In short: (§1)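 Kinases were expressed as T7 phage fusions in a BL21-derived E. coli host and the cleared lysates were used. Ligand beads were blocked with biotin and buffer (1% BSA, 0.05% Tween 20, 1 mM DTT). Compounds came from 40× DMSO stocks, and phage in the eluates was titred by qPCR.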

p38-gamma = molecular target: T2, p38-gamma (Homo sapiens, UniProt P53778)
T2 construct: host or cells: E. coli host derived from the BL21 strain, infected with T7 phage
In short: as §1

ABL1 (Q252H) = molecular target: T3, ABL1 (Q252H) (Homo sapiens, UniProt P00519, Q252H)
T3 construct: host or cells: E. coli host derived from BL21 (T7 phage lysate)
In short: as §1

TAK1 = molecular target: T4, TAK1 (Homo sapiens, UniProt O43318)
T4 construct: host or cells: E. coli host derived from the BL21 strain, T7 phage lysate
In short: as §1

[1] = molecular target: T5, RPS6KA5 (Kin.Dom.-2-C-terminal) (Homo sapiens, UniProt O75582)
T5 construct: RPS6KA5 (Kin.Dom.-2-C-terminal); host or cells: E. coli host derived from BL21, T7 phage lysate
In short: as §1

MYO3B = molecular target: T6, MYO3B (Homo sapiens, UniProt Q8WXR4)
T6 construct: host or cells: T7 phage in E. coli host derived from BL21
In short: as §1

MET = molecular target: T7, MET (Homo sapiens, UniProt P08581)
T7 construct: host or cells: E. coli derived from BL21, infected with T7 phage
In short: as §1

IGF1R = molecular target: T8, IGF1R (Homo sapiens, UniProt P08069)
T8 construct: host or cells: T7 phage in E. coli host derived from BL21
In short: as §1

ARK5 = molecular target: T9, ARK5 (Homo sapiens, UniProt O60285)
T9 construct: purchased Ambit Biosciences Corp (KinomeScan); host or cells: E. coli host derived from the BL21 strain, T7 phage
In short: as §1

AURKC = molecular target: T10, AURKC (Homo sapiens, UniProt Q9UQB9)
T10 construct: purchased Ambit Biosciences Corp (KinomeScan); host or cells: E. coli host derived from the BL21 strain, T7 phage
In short: as §1

p38-beta = molecular target: T11, p38-beta (Homo sapiens, UniProt Q15759)
T11 construct: host or cells: E. coli host derived from the BL21 strain, infected with T7 phage
In short: as §1

LYN = molecular target: T12, LYN (Homo sapiens, UniProt P07948)
T12 construct: host or cells: E. coli derived from BL21, infected with T7 phage
In short: as §1

ULK1 = molecular target: T13, ULK1 (Homo sapiens, UniProt O75385)
T13 construct: purchased Ambit Biosciences Corp (KinomeScan); host or cells: E. coli host derived from the BL21 strain (T7 phage lysate)
In short: as §1

TIE1 = molecular target: T14, TIE1 (Homo sapiens, UniProt P35590)
T14 construct: host or cells: E. coli host derived from the BL21 strain, T7 phage lysate
In short: as §1

MINK = molecular target: T15, MINK (Homo sapiens, UniProt Q8N4C8)
T15 construct: host or cells: E. coli derived from BL21, infected with T7 phage
In short: as §1

KIT (V559D) = molecular target: T16, KIT (V559D) (Homo sapiens, UniProt P10721, V559D)
T16 construct: host or cells: T7 phage in E. coli host derived from BL21
In short: as §1

ZAP70 = molecular target: T17, ZAP70 (Homo sapiens, UniProt P43403)
T17 construct: host or cells: E. coli host derived from the BL21 strain, infected with T7 phage
In short: as §1

PAK2 = molecular target: T18, PAK2 (Homo sapiens, UniProt Q13177)
T18 construct: host or cells: E. coli host derived from the BL21 strain, infected with T7 phage
In short: as §1

EPHA7 = molecular target: T19, EPHA7 (Homo sapiens, UniProt Q15375)
T19 construct: host or cells: E. coli host derived from BL21, T7 phage lysate
In short: as §1

TSSK1B = molecular target: T20, TSSK1B (Homo sapiens, UniProt Q9BXA7)
T20 construct: purchased Ambit Biosciences Corp (KinomeScan); host or cells: E. coli host derived from the BL21 strain (T7 phage lysate)
In short: as §1

FGR = molecular target: T21, FGR (Homo sapiens, UniProt P09769)
T21 construct: host or cells: E. coli host derived from BL21, infected with T7 phage
In short: as §1

CHEK2 = molecular target: T22, CHEK2 (Homo sapiens, UniProt O96017)
T22 construct: host or cells: T7 phage in E. coli (BL21-derived)
In short: as §1

T6 sequence (Q8WXR4 whole entry): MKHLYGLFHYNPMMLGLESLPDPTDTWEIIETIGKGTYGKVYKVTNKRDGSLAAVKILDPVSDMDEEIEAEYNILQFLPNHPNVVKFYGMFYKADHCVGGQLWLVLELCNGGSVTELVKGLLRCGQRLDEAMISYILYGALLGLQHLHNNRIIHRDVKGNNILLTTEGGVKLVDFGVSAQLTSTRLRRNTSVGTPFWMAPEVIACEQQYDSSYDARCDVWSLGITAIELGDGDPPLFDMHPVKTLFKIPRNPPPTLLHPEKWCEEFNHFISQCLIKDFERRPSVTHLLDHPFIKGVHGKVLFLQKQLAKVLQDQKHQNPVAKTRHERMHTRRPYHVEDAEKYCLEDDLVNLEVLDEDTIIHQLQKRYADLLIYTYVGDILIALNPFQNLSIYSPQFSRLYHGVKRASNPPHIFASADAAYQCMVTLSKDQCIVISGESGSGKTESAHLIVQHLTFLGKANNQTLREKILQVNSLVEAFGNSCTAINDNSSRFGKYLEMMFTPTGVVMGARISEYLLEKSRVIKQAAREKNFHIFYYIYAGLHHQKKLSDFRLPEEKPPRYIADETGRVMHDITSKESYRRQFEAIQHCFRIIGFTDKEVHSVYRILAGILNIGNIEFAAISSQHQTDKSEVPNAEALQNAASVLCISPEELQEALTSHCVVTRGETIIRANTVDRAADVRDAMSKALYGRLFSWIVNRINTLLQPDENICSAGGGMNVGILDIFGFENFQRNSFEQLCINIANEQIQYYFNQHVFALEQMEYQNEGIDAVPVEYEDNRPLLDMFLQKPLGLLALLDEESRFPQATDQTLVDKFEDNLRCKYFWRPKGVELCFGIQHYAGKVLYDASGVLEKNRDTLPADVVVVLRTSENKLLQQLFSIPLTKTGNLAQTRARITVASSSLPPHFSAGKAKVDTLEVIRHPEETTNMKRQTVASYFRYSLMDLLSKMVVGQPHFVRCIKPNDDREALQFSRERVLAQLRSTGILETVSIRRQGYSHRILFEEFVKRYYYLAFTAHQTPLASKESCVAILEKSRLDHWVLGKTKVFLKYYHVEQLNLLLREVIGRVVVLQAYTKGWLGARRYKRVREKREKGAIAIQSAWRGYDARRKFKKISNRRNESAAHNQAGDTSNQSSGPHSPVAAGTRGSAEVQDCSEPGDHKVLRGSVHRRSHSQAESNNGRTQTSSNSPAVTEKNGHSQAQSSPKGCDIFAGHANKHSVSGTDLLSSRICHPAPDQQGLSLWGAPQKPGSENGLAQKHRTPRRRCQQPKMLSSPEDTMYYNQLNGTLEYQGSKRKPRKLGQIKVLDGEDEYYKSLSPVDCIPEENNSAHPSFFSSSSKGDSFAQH
T21 sequence (P09769 whole entry): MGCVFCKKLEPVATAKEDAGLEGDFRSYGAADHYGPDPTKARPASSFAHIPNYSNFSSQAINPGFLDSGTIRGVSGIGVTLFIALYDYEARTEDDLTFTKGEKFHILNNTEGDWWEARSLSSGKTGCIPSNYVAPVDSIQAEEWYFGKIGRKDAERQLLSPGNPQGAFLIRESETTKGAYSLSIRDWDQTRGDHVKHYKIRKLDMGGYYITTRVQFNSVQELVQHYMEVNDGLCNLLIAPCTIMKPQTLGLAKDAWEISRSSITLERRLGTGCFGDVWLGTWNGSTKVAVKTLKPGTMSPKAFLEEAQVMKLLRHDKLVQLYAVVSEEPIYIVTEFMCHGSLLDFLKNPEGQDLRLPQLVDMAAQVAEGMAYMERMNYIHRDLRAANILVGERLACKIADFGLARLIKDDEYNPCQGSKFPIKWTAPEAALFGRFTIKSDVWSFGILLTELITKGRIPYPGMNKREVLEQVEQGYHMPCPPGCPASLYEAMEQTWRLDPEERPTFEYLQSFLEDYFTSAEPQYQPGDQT
T22 sequence (O96017 whole entry): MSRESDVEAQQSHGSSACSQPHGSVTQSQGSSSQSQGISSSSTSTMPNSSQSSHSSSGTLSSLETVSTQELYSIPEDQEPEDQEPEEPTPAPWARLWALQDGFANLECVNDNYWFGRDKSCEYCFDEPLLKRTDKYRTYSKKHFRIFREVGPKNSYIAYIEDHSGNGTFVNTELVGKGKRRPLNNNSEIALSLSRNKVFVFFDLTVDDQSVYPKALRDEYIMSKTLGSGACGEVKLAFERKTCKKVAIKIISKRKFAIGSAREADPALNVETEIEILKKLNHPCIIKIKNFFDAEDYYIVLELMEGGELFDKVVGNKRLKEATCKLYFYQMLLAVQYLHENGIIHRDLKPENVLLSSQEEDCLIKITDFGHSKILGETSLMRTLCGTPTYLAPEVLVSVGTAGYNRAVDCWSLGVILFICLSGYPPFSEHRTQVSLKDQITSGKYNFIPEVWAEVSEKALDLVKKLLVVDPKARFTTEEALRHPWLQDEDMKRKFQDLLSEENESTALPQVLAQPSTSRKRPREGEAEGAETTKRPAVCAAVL
T16 sequence (P10721 26-976 V559D): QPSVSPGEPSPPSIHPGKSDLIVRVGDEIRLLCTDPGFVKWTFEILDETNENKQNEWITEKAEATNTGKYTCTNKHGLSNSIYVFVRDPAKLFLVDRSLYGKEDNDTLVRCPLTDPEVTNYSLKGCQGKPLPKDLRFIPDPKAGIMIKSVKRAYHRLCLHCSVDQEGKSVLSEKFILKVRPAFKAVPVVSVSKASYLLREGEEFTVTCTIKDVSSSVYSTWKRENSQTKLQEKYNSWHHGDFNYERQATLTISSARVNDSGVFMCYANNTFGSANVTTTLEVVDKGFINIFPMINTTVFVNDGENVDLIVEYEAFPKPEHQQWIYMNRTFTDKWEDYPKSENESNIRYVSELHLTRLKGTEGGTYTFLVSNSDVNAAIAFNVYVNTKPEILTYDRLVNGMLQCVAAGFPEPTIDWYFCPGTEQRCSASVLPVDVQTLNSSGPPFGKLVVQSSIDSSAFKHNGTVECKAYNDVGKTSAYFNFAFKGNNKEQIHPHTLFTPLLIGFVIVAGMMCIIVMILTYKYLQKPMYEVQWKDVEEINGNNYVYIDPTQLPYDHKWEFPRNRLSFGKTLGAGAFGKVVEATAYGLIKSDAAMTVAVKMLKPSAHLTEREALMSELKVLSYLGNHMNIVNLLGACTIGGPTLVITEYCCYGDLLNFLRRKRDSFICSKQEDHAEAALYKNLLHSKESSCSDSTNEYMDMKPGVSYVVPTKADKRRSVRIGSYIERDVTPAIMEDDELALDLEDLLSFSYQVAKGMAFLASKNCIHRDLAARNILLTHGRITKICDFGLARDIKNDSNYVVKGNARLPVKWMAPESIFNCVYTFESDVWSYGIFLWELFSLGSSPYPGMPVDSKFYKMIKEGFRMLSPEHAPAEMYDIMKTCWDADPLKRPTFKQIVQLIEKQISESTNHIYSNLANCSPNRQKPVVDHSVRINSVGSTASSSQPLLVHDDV
T8 sequence (P08069 31-1367): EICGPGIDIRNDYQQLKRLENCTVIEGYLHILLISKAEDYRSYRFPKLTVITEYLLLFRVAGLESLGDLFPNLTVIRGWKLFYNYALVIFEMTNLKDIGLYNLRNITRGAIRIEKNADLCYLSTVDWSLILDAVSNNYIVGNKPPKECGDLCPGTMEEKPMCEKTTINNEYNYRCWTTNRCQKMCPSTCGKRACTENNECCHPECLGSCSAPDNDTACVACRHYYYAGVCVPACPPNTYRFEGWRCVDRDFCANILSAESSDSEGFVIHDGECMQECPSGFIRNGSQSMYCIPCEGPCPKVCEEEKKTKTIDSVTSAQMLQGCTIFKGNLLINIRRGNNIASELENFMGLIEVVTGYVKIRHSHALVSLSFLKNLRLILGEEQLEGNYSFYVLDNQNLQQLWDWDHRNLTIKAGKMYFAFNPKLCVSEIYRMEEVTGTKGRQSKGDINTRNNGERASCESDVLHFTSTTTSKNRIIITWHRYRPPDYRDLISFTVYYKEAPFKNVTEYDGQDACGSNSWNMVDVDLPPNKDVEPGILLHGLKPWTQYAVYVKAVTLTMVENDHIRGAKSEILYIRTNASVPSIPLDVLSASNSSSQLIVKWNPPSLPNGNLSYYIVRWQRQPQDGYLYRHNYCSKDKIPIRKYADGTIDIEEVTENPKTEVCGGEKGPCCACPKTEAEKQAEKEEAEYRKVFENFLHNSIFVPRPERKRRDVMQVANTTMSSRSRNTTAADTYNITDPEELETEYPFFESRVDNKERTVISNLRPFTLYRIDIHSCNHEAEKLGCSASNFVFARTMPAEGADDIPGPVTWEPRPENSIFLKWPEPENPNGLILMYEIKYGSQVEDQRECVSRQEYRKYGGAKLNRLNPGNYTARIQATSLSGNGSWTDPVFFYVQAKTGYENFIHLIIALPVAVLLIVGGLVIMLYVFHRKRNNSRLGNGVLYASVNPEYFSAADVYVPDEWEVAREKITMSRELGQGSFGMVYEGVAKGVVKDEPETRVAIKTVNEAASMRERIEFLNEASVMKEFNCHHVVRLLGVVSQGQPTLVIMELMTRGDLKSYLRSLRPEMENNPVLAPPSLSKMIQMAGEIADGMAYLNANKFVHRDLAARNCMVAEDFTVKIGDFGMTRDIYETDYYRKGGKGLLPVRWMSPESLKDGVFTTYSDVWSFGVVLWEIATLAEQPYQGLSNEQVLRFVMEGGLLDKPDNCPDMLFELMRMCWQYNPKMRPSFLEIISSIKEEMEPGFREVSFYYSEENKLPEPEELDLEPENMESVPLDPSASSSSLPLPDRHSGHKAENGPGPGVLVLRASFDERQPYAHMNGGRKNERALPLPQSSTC
T10 sequence (Q9UQB9 whole entry): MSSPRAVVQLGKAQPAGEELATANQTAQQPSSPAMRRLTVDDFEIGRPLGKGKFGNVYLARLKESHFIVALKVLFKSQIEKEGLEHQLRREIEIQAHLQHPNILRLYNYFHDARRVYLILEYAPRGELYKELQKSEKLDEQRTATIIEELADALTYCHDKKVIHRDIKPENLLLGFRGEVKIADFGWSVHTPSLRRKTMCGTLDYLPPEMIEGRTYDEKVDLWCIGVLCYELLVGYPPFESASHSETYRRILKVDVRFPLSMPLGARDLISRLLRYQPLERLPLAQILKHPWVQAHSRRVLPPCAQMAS

## C#Cc1cccc(Nc2ncnc3cc(OC)c(OCCCN4CCOCC4)cc23)c1 [NRC-2694, N-(3-ethylnylphenyl)-7-methoxy-6-[3-(4-morpholinyl)propoxy]-4-quinazolinamine]
PKMYT1
  % Ctrl @ 10000 nM: 74 % Ctrl
p38-gamma
  % Ctrl @ 10000 nM: 97 % Ctrl
ABL1 (Q252H)
  % Ctrl @ 10000 nM: 15 % Ctrl
TAK1
  % Ctrl @ 10000 nM: 66 % Ctrl
[1]
  % Ctrl @ 10000 nM: 57 % Ctrl
MYO3B
  % Ctrl @ 10000 nM: 100 % Ctrl
MET
  % Ctrl @ 10000 nM: 33 % Ctrl
IGF1R
  % Ctrl @ 10000 nM: 74 % Ctrl
ARK5
  % Ctrl @ 10000 nM: 29 % Ctrl
AURKC
  % Ctrl @ 10000 nM: 47 % Ctrl
p38-beta
  % Ctrl @ 10000 nM: 100 % Ctrl
LYN
  % Ctrl @ 10000 nM: 13 % Ctrl
ULK1
  % Ctrl @ 10000 nM: 100 % Ctrl
TIE1
  % Ctrl @ 10000 nM: 52 % Ctrl
MINK
  % Ctrl @ 10000 nM: 16 % Ctrl
KIT (V559D)
  % Ctrl @ 10000 nM: 17 % Ctrl
ZAP70
  % Ctrl @ 10000 nM: 100 % Ctrl
PAK2
  % Ctrl @ 10000 nM: 67 % Ctrl
EPHA7
  % Ctrl @ 10000 nM: 70 % Ctrl
TSSK1B
  % Ctrl @ 10000 nM: 93 % Ctrl
FGR
  % Ctrl @ 10000 nM: 19 % Ctrl
CHEK2
  % Ctrl @ 10000 nM: 38 % Ctrl

From patent US9050341B2, “Methods of treating drug resistant and other tumors by administering 6,7-dialkoxy quinazoline derivatives” (NATCO PHARMA LIMITED, priority 2009, dated 2015)
